Our source for the melting point and IC50 values is patent US7112676B2, “Pyrimido compounds having antiproliferative activity” (Hoffmann-La Roche Inc., priority 2002, dated 2006).

Molecules are shown by their SMILES.

The target of one series is EGFR (Homo sapiens, UniProt P00533). Put plainly: EGFR kinase HTRF assay. Conditions: 0.5 μM ATP, read-out: IC50 (μM) - Enzyme Inhibition Assays EGFR. In kind it is biochemical. As for the experimental part:
To determine inhibition of KDR, FGFR, EGFR, and PDGFR activity, kinase assays were conducted using an HTRF (Homogeneous Time Resolved Fluorescence) assay. This assay is described in A. J. Kolb et. al., Drug Discovery Today, 1998, 3(7), p 333.
Kinase activity assays were performed in 96-well polypropylene plates (Falcon) with a total volume of 90 μL in each well. Each well contained 1 μM KDR substrate (Biotin-EEEEYFELVAKKKK), 1 nM activated KDR, and a test compound with one of 8 assay concentrations ranging from 100 μM to […] (1:5 serial dilution). The kinase activity assay was done in the presence of 100 mM HEPES, pH 7.4, 1 mM DTT, 0.1 mM Na2VO4, 25 mM MgCl2, 50 mM NaCl (from KDR stock solution), 1% DMSO (from compound), 0.3 mM ATP (at Km concentration) and 0.02% BSA. The reaction was incubated at 37° C. for 30 minutes. To stop the KDR reaction, 72 μL of reaction mixture was transferred into a STOP plate containing 18 μL of revelation buffer (20 mM EDTA, 50 mM HEPES, pH 7.4, 0.02% BSA, 10 nM Eu-labelled anti-pY antibody (final conc. 2 nM), and 100 nM streptavidin (final conc. 20 nM)). After mixing, 35 μL of solution was transferred into duplicate wells of a 384-well black plate (Costar), and read at 615/665 nm on a Wallac Victor 5 reader.
The EGFR kinase activity assay was performed with 1 μM substrate (Biotin-EEEEYFELV), 1.5 nM EGFR, test compounds, 100 mM HEPES, pH 7.4, 1 mM DTT, 5 mM MgCl2, 2 mM MnCl2, 1% DMSO, 0.5 μM ATP (Km for EGFR), 0.1 mM Na2VO4, and 0.02% BSA. The rest of the assay was performed in the same manner as the KDR assay.
Compound IC50 values were determined from duplicate sets of data, and calculated by using Excel and fitting data to equation Y=[(a−b)/{1+(X/c)^d]+b, where a and b are enzyme activity in the presence of no test inhibitor compound and an infinite amount of inhibitor test compound, respectively, c is the IC50 and d is the hill constant of the compound response. The IC50 value is the concentration of test compound that reduces by 50% the enzyme activity under the test conditions described.

EGFR, sequence (P00533 25-1210, species assumed): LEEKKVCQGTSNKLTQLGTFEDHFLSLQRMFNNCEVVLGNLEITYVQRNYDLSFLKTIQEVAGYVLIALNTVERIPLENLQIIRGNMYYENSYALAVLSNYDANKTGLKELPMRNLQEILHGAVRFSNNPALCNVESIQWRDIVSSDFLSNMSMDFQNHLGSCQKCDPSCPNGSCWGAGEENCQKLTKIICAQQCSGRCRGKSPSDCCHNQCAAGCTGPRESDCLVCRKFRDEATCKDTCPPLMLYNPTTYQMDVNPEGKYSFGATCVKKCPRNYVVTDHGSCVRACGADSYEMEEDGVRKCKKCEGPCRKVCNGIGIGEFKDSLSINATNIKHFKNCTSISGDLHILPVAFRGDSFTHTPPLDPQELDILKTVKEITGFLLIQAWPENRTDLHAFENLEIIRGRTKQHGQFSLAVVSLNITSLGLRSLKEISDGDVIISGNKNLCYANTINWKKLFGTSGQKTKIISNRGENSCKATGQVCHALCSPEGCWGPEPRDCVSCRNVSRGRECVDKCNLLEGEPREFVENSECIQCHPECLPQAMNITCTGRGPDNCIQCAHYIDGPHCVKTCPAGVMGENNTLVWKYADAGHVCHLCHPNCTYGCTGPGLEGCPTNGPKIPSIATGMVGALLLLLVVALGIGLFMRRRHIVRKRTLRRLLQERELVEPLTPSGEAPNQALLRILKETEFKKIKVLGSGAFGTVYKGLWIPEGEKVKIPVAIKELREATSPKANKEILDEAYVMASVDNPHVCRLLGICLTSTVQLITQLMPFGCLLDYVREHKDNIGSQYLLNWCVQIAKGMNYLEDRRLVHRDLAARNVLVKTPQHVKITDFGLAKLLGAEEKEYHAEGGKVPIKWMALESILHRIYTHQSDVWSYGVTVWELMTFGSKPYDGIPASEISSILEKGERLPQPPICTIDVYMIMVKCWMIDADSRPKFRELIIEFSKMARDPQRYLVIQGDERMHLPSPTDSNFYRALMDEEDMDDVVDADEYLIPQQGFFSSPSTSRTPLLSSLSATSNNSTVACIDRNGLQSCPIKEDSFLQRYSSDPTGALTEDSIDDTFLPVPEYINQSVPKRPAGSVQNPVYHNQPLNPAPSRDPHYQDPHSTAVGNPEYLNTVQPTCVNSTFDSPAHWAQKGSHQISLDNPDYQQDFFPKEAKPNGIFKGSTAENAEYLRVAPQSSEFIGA

Compound `COc1ccc(N2C(=O)N(c3ccccc3)c3nc(Nc4ccccc4)ncc3C2C)cc1` (racemic) [Example 1g, (±)-3-(4-Methoxy-phenyl)-4-methyl-1-phenyl-7-phenylamino-3,4-dihydro-1H-pyrimido[4,5-d]pyrimidin-2-one] yielded a melting point of 222 to 234 °C. Also, the IC50 on EGFR was < 10 µM.

In turn, `COc1ccc(N2C(=O)N(c3ccc(OC)cc3)C(C)c3cnc(Nc4ccccc4)nc32)cc1` (racemic) [Example 4b, (±)-1,3-Bis-(4-methoxy-phenyl)-4-methyl-7-phenylamino-3,4-dihydro-1H-pyrimido[4,5-d]pyrimidin-2-one] had a melting point of 228 to 234 °C. For the same compound, the IC50 at EGFR was < 10 µM.

Turning to `COc1ccc(N2C(=O)N(c3cccc(C#N)c3)c3nc(Nc4ccccc4)ncc3C2C)cc1` (racemic) [Example 5b, (±)-3-[3-(4-Methoxy-phenyl)-4-methyl-2-oxo-7-phenylamino-3,4-dihydro-2H-pyrimido[4,5-d]pyrimidin-1-yl]-benzonitrile], the melting point fell in the range of 224 to 228 °C. Moreover, on EGFR, the IC50 was < 10 µM.

As for `COc1ccc(N2C(=O)N(c3cccc(C(N)=O)c3)c3nc(Nc4ccccc4)ncc3C2C)cc1` (racemic) [Example 6, (±)-3-[3-(4-Methoxy-phenyl)-4-methyl-2-oxo-7-phenylamino-3,4-dihydro-2H-pyrimido[4,5-d]pyrimidin-1-yl]-benzamide], the melting point fell in the range of 268 to 273 °C. For the same compound, the IC50 on EGFR was < 10 µM.

The compound `COc1ccc(N2C(=O)N(c3ccccc3)c3nc(Nc4ccccc4)ncc3C2C)c(F)c1` (racemic) [Example 8d, (±)-3-(2-Fluoro-4-methoxy-phenyl)-4-methyl-1-phenyl-7-phenylamino-3,4-dihydro-1H-pyrimido[4,5-d]pyrimidin-2-one] registered a melting point of 242 to 250 °C. In addition, the IC50 on EGFR was < 10 µM.

`COc1ccc(N2C(=O)N(c3cccc(C#N)c3)c3nc(Nc4ccccc4)ncc3C2C)c(F)c1` (racemic) [Example 9b, (±)-3-[3-(2-Fluoro-4-methoxy-phenyl)-4-methyl-2-oxo-7-phenylamino-3,4-dihydro-2H-pyrimido[4,5-d]pyrimidin-1-yl]-benzonitrile] gave a melting point of 223 to 228 °C. Besides, at EGFR, the half-maximal inhibitory concentration (IC50) is < 10 µM.

On to `COc1ccc(N2C(=O)N(c3cccc(C(N)=O)c3)c3nc(Nc4ccccc4)ncc3C2C)c(F)c1` (racemic) [Example 10, (±)-3-[3-(2-Fluoro-4-methoxy-phenyl)-4-methyl-2-oxo-7-phenylamino-3,4-dihydro-2H-pyrimido[4,5-d]pyrimidin-1-yl]-benzamide], for which the melting point was 282 to 286 °C. The IC50 on EGFR is < 10 µM.

As for `COc1ccc(N2C(=O)N(c3ccccc3)c3nc(Nc4ccccc4)ncc3[C@@H]2C)cc1` (single isomer, unassigned) [Example 3], the melting point lay in the range of 223 to 236 °C. Further, the IC50 at EGFR is < 10 µM.

In the case of `COc1ccc(N2C(=O)N([C@H](C)CO)c3nc(Nc4ccccc4)ncc3[C@@H]2C)cc1` [Example 15b, 1-(2-Hydroxy-1-(R)-methyl-ethyl)-3-(4-methoxy-phenyl)-4-(S)-methyl-7-phenylamino-3,4-dihydro-1H-pyrimido[4,5-d]pyrimidin-2-one], the melting point lay in the range of 195 to 198 °C. In addition, the IC50 at EGFR was < 10 µM.

The term melting point denotes the temperature of the solid-liquid transition. Usually IC50 stands for the concentration at which inhibition is half-maximal.
